Test results reported in ChEMBL document CHEMBL1201862, “PubChem BioAssay data set” (2004).
Active and inactive are the calls of the source.

Tests used:
[1] = A Cell Based Secondary Assay To Explore Cytotoxicity of Compounds that Sensitize Mycobacterium Tuberculosis to Beta-Lactam Antibiotics.; format: functional
[2] = M. tuberculosis H37Rv growth inhibitors, H37Rv strain (AID 1626); format: functional
Cytochrome P450 2D6 = Cytochrome P450 2D6 (Homo sapiens, UniProt P10635); test: qHTS Assay for Inhibitors and Substrates of Cytochrome P450 2D6. [Related pubchem assays: 410 ]; format: ADME; conditions: read-out: Potency
Cytochrome P450 3A4 = Cytochrome P450 3A4 (Homo sapiens, UniProt P08684); conditions: Potency;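 further: confirmatory qHTS run detecting inhibitors and substrates of CYP3A4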
[3] = growth suppression of PTEN-null colon cells, dose response, cell-based, HCT116 PTEN knockout (AID 1047); format: functional;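 further: HCT116 colon tumor cells with PTEN knocked out; cells exposed to compound for 60 hours before readout; potency for loss of cell viability measured by luminescence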
[4] = growth suppression of beta-catenin-knockout colon cells, dose response, cell-based, HCT116, human colon tumor (AID 1045); format: functional;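 further: HCT116 colon tumor cells with beta catenin knocked out; cells exposed to compound for 60 hours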
[5] = target: Neurotensin receptor type 1 (Homo sapiens, UniProt P30989); format: functional;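 further: Image-based confirmatory dose-response assay measuring agonist activity at NTR1; NTR1-expressing U2OS osteosarcoma cells imaged for beta-arrestin GFP spot formation; agonist potency where compounds increase beta-arrestin recruitment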
[6] = A549 cell cytotoxicity, dose response, cytotoxicity control, plate reader, cherry-pick, antagonist series (AID 743412); format: functional, cell-based
[7] = HepG2 cell cytotoxicity, dose response, cytotoxicity control, plate reader, cherry-pick, antagonist series (AID 743416); format: functional, cell-based
[8] = LGR2 antagonists, dose response, cell-based, HEK293, CRE-luciferase reporter, cherry pick, set 2 (AID 743343); format: functional;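 further: transfected cells were stimulated with diluted bursicon conditioned medium after compound addition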
[9] = MC4R antagonists, dose response, counter-screen for LGR2 antagonist project, cell-based, plate reader, cherry pick (AID 743444); format: functional;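 further: transfected HEK 293 cells stimulated with alpha-MSH peptide; potency of inhibitors of the alpha-MSH evoked signal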
[10] = HEK293 cell cytotoxicity, dose response, cytotoxicity control, plate reader, cherry-picked samples (AID 743446); format: functional, cell-based
[11] = target: T1, Neuropeptide Y receptor type 2 (Homo sapiens, UniProt P49146); test: NPY-Y2 antagonist potency, selectivity check, dose response, counter-screen for NPY-Y1 antagonist project, cell-based (AID 1278); format: functional
T1 sequence (P49146 whole entry): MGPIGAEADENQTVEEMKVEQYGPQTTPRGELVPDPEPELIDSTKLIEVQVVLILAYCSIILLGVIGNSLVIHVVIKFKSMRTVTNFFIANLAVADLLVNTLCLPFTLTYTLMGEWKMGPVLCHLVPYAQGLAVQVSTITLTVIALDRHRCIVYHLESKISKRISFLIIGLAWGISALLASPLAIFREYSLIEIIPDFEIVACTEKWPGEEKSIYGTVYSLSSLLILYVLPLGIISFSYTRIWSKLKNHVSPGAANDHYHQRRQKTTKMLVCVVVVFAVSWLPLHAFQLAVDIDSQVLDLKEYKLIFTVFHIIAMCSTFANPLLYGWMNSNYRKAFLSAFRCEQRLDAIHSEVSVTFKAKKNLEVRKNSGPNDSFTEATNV

[12] = target: T2, Neuropeptide Y receptor type 1 (Homo sapiens, UniProt P25929); test: NPY-Y1 receptor antagonist potency, dose response, cell-based (AID 1277); format: functional
T2 sequence (P25929 whole entry): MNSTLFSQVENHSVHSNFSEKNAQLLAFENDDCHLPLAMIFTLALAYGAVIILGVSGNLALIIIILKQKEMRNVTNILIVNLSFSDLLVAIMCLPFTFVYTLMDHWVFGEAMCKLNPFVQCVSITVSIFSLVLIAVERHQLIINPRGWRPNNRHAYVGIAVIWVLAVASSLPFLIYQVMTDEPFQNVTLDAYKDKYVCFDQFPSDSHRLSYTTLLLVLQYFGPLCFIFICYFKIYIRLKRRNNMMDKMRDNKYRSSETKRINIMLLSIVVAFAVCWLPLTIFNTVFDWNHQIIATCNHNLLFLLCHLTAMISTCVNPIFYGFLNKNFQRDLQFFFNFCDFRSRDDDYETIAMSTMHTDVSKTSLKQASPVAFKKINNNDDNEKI

[13] = target: Induced myeloid leukemia cell differentiation protein Mcl-1 (Homo sapiens, UniProt Q07820); test: MCL1-BIM BH3 interaction inhibitors, dose response, biochemical, fluorescence polarization, BIM-BH3 peptide, 1536-well (AID 2217)
Bcl-2-like protein 1 = Bcl-2-like protein 1 (Homo sapiens, UniProt Q07817); test: BCL-XL inhibitors, dose response, selectivity assay for MCL1 inhibitor project, biochemical, fluorescence polarization, 1536-well (AID 2218)
[14] = target: Intestinal-type alkaline phosphatase (Mus musculus, UniProt P24822); test: PubChem AID 488785; format: functional
[15] = target: T3, Alkaline phosphatase, tissue-nonspecific isozyme (Homo sapiens, UniProt P05186); test: TNAP enzyme inhibition by screening hits, dose response, selectivity assay for mouse IAP inhibitor project, biochemical, human TNAP, uHTS hits (AID 488906); format: functional
T3 sequence (P05186 whole entry): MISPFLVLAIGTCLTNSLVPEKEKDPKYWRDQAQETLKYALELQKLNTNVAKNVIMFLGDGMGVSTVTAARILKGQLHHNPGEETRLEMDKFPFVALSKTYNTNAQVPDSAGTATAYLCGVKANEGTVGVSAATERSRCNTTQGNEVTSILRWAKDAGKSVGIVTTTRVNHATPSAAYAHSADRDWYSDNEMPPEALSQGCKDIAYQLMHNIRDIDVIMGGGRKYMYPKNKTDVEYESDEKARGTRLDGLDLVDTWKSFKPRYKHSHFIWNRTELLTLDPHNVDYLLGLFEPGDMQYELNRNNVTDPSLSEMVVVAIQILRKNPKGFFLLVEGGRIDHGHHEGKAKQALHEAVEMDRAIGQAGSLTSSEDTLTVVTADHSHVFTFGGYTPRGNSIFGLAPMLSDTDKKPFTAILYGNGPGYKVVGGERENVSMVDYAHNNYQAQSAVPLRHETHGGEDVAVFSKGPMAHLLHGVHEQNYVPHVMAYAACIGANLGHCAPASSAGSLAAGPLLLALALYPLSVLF

[16] = target: Intestinal-type alkaline phosphatase (Homo sapiens, UniProt P09923); test: inhibition of human intestinal alkaline phosphatase – biochemical, dose response (AID 488876); format: functional
[17] = target: T4, Histone-lysine N-methyltransferase NSD2 (Homo sapiens, UniProt O96028); format: biochemical
T4 sequence (O96028 whole entry): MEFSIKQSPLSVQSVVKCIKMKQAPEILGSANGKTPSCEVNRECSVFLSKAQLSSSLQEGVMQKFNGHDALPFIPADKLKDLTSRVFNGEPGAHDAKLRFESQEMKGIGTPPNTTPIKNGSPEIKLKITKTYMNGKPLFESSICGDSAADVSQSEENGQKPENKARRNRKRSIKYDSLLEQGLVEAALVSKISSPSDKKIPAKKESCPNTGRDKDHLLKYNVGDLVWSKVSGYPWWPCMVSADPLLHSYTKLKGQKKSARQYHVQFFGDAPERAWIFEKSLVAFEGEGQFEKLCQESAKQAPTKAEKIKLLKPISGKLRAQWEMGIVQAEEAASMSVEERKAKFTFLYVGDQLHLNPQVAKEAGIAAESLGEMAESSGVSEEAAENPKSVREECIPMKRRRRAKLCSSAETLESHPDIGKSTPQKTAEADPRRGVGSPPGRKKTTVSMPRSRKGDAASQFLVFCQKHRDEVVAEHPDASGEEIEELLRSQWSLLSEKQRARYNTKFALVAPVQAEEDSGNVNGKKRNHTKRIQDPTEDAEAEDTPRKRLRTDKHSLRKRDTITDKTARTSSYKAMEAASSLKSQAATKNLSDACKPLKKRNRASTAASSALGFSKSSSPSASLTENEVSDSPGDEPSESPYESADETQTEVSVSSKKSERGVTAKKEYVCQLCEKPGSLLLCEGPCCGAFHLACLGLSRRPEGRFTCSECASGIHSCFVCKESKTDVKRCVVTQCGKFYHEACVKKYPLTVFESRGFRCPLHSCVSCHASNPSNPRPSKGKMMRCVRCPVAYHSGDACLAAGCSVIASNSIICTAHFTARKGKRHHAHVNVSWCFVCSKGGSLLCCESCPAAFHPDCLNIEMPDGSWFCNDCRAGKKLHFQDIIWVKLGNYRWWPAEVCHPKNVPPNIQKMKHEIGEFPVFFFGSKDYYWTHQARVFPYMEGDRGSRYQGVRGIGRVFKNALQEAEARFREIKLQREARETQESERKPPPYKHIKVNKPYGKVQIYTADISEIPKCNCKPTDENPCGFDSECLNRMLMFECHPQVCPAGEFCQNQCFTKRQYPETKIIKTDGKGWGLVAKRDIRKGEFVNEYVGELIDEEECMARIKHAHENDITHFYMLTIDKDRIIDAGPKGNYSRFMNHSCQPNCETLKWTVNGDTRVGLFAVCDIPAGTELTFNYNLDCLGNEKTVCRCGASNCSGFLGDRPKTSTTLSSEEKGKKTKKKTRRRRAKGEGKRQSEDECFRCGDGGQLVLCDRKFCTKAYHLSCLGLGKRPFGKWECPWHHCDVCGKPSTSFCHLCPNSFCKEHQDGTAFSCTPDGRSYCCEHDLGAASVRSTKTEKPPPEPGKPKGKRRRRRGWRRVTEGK

[18] = target: NAD-dependent protein deacylase sirtuin-5, mitochondrial (Homo sapiens, UniProt Q9NXA8); test: SIRT5 desuccinylase inhibitors, dose response, biochemical, fluorescence imaging, cherry-pick, set 5 (AID 720591);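 further: desuccinylation of succinyl peptide AMC substrate read as fluorescence after trypsin release; potency of inhibitors that lower fluorescence and may act on trypsin instead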
NAD-dependent protein deacylase sirtuin-5, mitochondrial, sequence (Q9NXA8 whole entry): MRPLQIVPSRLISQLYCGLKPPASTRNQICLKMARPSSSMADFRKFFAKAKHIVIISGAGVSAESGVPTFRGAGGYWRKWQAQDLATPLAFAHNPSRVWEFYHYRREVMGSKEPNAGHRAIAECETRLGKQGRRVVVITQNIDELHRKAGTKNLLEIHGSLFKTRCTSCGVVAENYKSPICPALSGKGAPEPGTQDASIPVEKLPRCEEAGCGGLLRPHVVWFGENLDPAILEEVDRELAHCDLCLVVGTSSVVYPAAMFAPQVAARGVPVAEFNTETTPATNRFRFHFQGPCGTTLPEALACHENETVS

Cytochrome P450 3A4, sequence (P08684 whole entry): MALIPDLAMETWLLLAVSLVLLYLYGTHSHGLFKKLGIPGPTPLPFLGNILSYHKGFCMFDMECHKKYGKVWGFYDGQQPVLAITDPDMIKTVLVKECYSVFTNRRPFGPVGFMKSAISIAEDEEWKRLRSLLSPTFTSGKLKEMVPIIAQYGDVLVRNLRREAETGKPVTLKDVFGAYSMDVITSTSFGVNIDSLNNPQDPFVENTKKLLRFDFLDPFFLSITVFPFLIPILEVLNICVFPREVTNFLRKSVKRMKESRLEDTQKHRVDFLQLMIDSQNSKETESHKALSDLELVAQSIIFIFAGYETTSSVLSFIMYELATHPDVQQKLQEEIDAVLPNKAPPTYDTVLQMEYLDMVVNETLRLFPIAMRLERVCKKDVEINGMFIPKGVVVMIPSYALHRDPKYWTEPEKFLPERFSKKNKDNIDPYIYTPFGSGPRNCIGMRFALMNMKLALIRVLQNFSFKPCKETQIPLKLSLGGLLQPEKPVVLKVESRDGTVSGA
Intestinal-type alkaline phosphatase (Mus musculus, UniProt P24822), sequence (P24822 whole entry): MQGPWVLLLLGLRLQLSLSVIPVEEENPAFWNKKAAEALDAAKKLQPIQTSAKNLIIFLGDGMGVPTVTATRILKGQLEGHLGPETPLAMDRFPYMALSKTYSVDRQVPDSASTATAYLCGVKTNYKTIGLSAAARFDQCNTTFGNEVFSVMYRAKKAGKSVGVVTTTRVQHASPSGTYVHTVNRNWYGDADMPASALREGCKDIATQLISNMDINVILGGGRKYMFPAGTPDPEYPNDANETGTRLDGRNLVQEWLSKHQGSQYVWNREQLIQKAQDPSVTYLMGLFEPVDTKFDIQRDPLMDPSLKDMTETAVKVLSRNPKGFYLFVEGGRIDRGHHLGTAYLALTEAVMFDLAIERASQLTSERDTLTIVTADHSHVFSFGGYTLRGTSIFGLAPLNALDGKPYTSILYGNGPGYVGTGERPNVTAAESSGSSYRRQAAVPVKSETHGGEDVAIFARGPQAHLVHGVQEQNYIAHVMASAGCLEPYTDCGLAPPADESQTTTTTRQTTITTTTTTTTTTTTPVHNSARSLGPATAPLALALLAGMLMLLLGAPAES
Bcl-2-like protein 1, sequence (Q07817 whole entry): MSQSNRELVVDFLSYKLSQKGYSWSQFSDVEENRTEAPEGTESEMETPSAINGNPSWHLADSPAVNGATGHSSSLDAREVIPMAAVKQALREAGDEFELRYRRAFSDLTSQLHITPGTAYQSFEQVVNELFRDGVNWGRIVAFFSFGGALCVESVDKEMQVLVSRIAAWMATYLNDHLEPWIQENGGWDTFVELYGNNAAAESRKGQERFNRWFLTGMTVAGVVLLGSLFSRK
Induced myeloid leukemia cell differentiation protein Mcl-1, sequence (Q07820 whole entry): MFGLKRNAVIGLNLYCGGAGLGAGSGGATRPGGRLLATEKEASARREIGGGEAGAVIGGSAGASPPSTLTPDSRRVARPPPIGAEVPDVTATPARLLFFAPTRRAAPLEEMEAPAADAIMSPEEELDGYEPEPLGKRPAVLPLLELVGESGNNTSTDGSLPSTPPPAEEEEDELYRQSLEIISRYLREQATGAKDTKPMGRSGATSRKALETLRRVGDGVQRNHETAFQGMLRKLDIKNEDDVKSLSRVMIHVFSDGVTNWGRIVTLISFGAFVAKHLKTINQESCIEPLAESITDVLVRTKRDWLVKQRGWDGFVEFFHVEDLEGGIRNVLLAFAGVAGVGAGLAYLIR
Neurotensin receptor type 1, sequence (P30989 whole entry): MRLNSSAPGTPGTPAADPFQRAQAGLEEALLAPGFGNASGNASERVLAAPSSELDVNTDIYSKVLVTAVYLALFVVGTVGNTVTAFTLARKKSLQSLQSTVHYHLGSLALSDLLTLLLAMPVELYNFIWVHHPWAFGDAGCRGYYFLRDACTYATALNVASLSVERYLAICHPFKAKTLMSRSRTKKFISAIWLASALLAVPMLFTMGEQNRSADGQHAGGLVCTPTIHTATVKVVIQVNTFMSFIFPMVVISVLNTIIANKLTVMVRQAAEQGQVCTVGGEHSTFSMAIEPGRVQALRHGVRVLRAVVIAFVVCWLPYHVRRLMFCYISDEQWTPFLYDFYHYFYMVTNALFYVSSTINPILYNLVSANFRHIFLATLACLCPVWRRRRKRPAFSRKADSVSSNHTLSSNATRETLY
Cytochrome P450 2D6, sequence (P10635 whole entry): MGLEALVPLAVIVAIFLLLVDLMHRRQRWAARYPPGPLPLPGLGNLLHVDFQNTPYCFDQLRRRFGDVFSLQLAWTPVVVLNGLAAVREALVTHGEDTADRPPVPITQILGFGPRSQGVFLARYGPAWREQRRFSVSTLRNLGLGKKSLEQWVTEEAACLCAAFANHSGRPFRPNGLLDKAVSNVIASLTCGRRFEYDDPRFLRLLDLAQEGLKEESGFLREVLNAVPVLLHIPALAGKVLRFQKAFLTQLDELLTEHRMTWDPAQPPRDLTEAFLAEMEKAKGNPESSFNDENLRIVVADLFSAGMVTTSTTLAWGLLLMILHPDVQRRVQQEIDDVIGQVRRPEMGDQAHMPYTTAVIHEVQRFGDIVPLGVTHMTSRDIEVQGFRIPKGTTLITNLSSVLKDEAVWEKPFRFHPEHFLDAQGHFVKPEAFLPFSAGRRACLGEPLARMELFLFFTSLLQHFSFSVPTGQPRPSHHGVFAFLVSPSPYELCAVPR
Intestinal-type alkaline phosphatase (Homo sapiens, UniProt P09923), sequence (P09923 whole entry): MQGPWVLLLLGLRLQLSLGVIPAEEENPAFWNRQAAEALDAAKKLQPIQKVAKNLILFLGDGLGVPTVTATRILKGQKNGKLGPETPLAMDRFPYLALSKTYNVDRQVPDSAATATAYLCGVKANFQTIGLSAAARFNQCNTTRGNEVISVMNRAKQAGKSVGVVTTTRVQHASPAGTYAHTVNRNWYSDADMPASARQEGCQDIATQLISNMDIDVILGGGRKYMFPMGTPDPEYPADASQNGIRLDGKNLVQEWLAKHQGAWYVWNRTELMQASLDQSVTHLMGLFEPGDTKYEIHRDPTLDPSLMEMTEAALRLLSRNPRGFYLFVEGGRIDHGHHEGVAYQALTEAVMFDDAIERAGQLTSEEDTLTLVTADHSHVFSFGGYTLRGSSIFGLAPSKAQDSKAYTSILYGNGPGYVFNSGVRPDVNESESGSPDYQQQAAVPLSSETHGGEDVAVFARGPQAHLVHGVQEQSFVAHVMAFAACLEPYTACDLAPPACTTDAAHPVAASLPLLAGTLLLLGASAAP

Sc1ncnc2scc(-c3ccc(Br)cc3)c12
CC50 [1]: 25.9 µM (active)
IC50 [2]: > 100 µM (active)

CC(C)CN1CCc2nc(-c3ccccc3)c3c(c2C1)COC(C)C3 (configuration not stated)
AC50 (Cytochrome P450 2D6): 3.16 µM (inconclusive)
AC50 (Cytochrome P450 3A4): 3.16 µM (inconclusive)

CC(C)C(=O)N1CCN(c2ccc(NC(=O)c3ccc4c(c3)OCCO4)cc2Cl)CC1
IC50 [2]: > 100 µM (active)
EC50 [3]: 9.21 µM (active)
EC50 [4]: 9.2 µM (active)
EC50 [5]: 18.5 µM (active)
AC50 [6]: 22.6 µM (active)
AC50 [7]: 17.7 µM (active)
AC50 [8]: 16 µM (active)
AC50 [9]: 19.1 µM (active)
AC50 [10]: 10.7 µM (active)

CCC(C)(C(=O)NC1CCCC1)N(Cc1ccco1)C(=O)Cc1cccs1 (configuration not stated)
IC50 [11]: > 35 µM (not active)
IC50 [12]: > 35 µM (not active)

N#Cc1c(SCC(=O)Nc2nncs2)sc2c(O)cc(=O)[nH]c12
IC50 [13]: 25.3 µM (not active)
IC50 (Bcl-2-like protein 1): 96.5 µM (not active)
IC50 [14]: 2.3 µM (active)
IC50 [15]: > 100 µM (inactive)
IC50 [16]: > 100 µM (inactive)
AC50 [17]: 6.29 µM (active)
AC50 [18]: 4.58 µM (active)
